The record followed here is patent US9643968B2, “Fused acridine derivative and pharmaceutical composition, preparation method and use thereof” (Peking University, priority 2014, dated 2017).

Series [1] concerns HCT116 (human colon cancer cell). The series can be described thus: MTT in vitro cytotoxicity, HCT116. The format is cell-based. Conditions: HCT-116, 72 hr incubation. As to the method: (§1) Materials and methods: MTT (3-[4,5-dimethylthiazol-2-yl]-diphenyl tetrazolium bromide) method was employed to determine the antiproliferative activity of all the compounds of the Examples and Contrasting Examples in vitro against selected cell lines, including HCT116 (human colon cancer cell), PC-3 (human prostate cancer), HepG2 (human hepatocellular carcinoma), SK-OV-3 (human ovarian adenocarcinoma), MCF-7 (human breast cancer), U87MG (human glioblastoma cell) cell lines.
(§2) Procedure: Human tumor cells of HCT116, PC-3, HepG2, SK-OV-3, MCF-7, and U87MG were in vitro cultured, and collected until the cells grow to the logarithmic phase. The cells were centrifuged for 5 minutes at 1000 rpm, and supernatant was discarded. Subsequently appropriate culture medium was added to suspend the precipitation, and the concentration of cells was adjusted to 3.5˜5.5×10^4/mL. the suspensions of cells were seeded in 96-well microplate at 100 μL per well, and incubated in incubator (37° C., 5% CO2) for 24 hr. The compound to test was added. For the control group, equivalent concentration of DMSO (final concentration 0.5%) was added. For each group, three copy wells were set. After incubated for 72 hr, 20 μL 5 mg/mL of MTT was added into each well, and placed at 37° C. for 3 hr. 150 μL of DMSO was added into each wells, and vibrated the shaker at 37° C. for 5 mins, then measured the absorbance (OD) value at 492 nm/620 nm. The IC50 values were calculated using Prism 5.0 software.

In series [2] the test system is PC-3 (human prostate cancer). As to the kind of experiment: MTT in vitro cytotoxicity, PC-3. Conditions: 72 hr incubation, read-out: IC50 PC3. The format is cell-based. As to the method:
as §1, §2

The test system of series [3] is U87MG (human glioblastoma cell). The series can be described thus: MTT in vitro cytotoxicity, U87MG. The format is cell-based. Conditions: U-87 MG, 72 hr incubation. As to the method:
as §1, §2

Series [4] relates to HepG2 (human hepatocellular carcinoma). The series can be described thus: MTT in vitro cytotoxicity, HepG2. The format is cell-based. Particulars: 72 hr incubation. As to the method: as §1, §2
The subject of series [5] is SK-OV-3 (human ovarian adenocarcinoma). The series can be described thus: MTT in vitro cytotoxicity, SK-OV-3. Particulars: 72 hr incubation. The format is cell-based. As to the method:
as §1, §2

A further series relates to tumor cells (U87MG). As to the kind of experiment: Assay for inhibiting cancer cell clone formation (soft agar). The format is cell-based, human. Conditions: concentration range from 0.020 to 0.090 μM, 10-14 days. As to the method:
Materials and methods: The tested tumor cells (U87MG) in the logarithmic phase were digested with 0.25% trypsin then percussed gently to the single cell state, and counted the live cells. The cells density was adjusted to 1×10^6[…] with DMEM containing 20% fetal bovine serum, and then diluted gradiently according to the experiment requirement.
Two concentrations (1.2% and 0.7%) of low melting point agarose fluid were prepared with distilled water respectively. A mixture of 1.2% agarose fluid and 2×DMEM medium (contains 2× antibiotics and 20% calf serum) was prepared in 1:1 ratio, then transferred (3 mL) into 6 cm diameter flat dishes, cooled to solidification to furnish the bottom agar which was stored in a CO2 incubator. The cell suspension (0.2 mL) was added to a mixture of 0.7% agarose and 2×DMEM medium which was prepared in 1:1 ratio in sterile tubes, and thoroughly mixed before injection to the precoated dishes to form the double layer agar. After the upper agar being solidified, the dishes were incubated in 37° C. and 5% CO2 for 10-14 days, each experiment was performed in 3-6 times.
The number of clones was counted under an inverted microscope. The clone formation rate was calculated.

In another series the test system is U87MG cells. As to the kind of experiment: In vivo antitumor activity test, U87MG subcutaneous xenograft. Set-up: species or system BALB/c nude mice. Conditions: oral qd × 5/w; for tumor inhibition rate (IR): 10 doses, by tumor weight. As to the method:
(§3) Animals: Female 6-8 weeks BALB/c nude mice weighed 16 to 18 g. They were raised at SPF-level animal room with a 12 h light-dark cycle; drinking and eating were provided ad libitum.
(§4) Under aseptic conditions, U87MG cells in the logarithmic phase were digested and its density was adjusted. U87MG cells were inoculated hypodermically in BALB/c nude mice, 0.1 mL for each mouse. The diameter of the transplantation was measured with a Vernier caliper. After their tumor size was about 100-200 mm^3, 36 mice were randomly divided into 5 groups according to the tumor size. The mice of each group was orally administered the dose respectively according to the above-mentioned schedule, and the mice of the vehicle group were given same dose of saline. The first day of dosing named for D1. The long diameter and short diameter of the tumor size of each mouse were measured twice a week, and the body weights were recorded at the same time.
Indicators were observed, measured, and recorded from the first day of dosing. The tumor size was measured using a Vernier caliper to calculate tumor volume change and the tumor growth. After the tumor-burdened mice were executed and dissected, the tumor tissues were separated, and weighed.
(§5) Indicators for antitumor efficacy evaluation including: relative tumor inhibition rate, body weight, general state of the mice and related toxicity index. Curves of tumor growth and body weight change of every group were plotted at the end of the experiment.
The calculation formula for tumor volume (TV) is: TV=½×a×b^2, where a and b means long diameter and short diameter of the tumor size respectively.
Tumor inhibition rate IR (%)=(1−TTW/CTW)×100%, TTW: TW of the treatment group; CTW: TW of the control group.
Statistical analysis: Data were analyzed using SPSS 11.0 with Student t-test for comparisons and ANOVA. P-values <0.05 were considered significant.

A short description of series [6]: Body weight in U87MG tumor-bearing mice. The format is in vivo, BALB/c nude mice. Particulars: oral qd × 5/w. As to the method:
as §3, §4, §5

In series [7] the test system is MCF-7 (human breast cancer). As to the kind of experiment: MTT in vitro cytotoxicity, MCF-7. The format is cell-based. Particulars: MCF7, 72 hr incubation. As to the method: as §1, §2

On to `O=C1c2c3ccccc3nc3cccc(c23)N1CCCN1CCCC1` [Compound 1h, 2-(3-(pyrrolidin-1-yl)propyl)pyrrolo[2,3,4-kl]acridin-1-(2H)-one], for which the IC50 was 1.8 µM in series [1]; 11.9 µM in [2]; 10.2 µM in [3]; 8.15 µM in [4]; 11.9 µM in [5].

`COc1ccc2nc3c(C)ccc4c3c(c2c1)C(=O)N4CCN(C)C.O=C(O)/C=C/C(=O)O` [Compound 5c′, 2-(2-(dimethylamino)ethyl)-9-methoxy-5-methylpyrrolo[2,3,4-kl]-acridin-1-(2H)-one fumarate]: the “inhibition of glioma cell clone formation” value in the series on tumor cells (U87MG) was “significantly inhibited”. Further, in the series on U87MG cells (high dose group (80 mg/kg)), the “tumor size compared with the vehicle” value is given as “significantly smaller than the vehicle” and the “tumor inhibition rate (IR)” value stood at 91%. Moreover, in the series with U87MG cells (median dose group (40 mg/kg)), the “tumor size compared with the vehicle” value is given as “significantly smaller than the vehicle” and the “tumor inhibition rate (IR)” value was 69%. Besides, in series [6] (high dose group (80 mg/kg)), the “animal weight compared with the vehicle” value was “grew slowly compared with the vehicle” and the “animal weight loss compared with the positive control (TMZ) group” value is “significantly lower than the positive control”. Moreover, in series [6] (median dose group (40 mg/kg)), the “animal weight compared with the vehicle” value is “grew slowly compared with the vehicle”.

With `CCCCN1C(=O)c2c3ccccc3nc3cccc1c23` [Compound 6a, 2-butylpyrrolo[2,3,4-kl]acridin-1-(2H)-one, reference compound], the half-maximal inhibitory concentration (IC50) in series [1], in [2], in series [3], in series [4] and in series [5] was above 50 µM in each case.

In the case of `O=C1c2c3ccccc3nc3cccc(c23)N1c1ccccc1` [Compound 6b, 2-phenylpyrrolo[2,3,4-kl]acridin-1-(2H)-one, reference compound], the concentration for half-maximal inhibition (IC50) in series [1], in series [2], in series [3], in [4] and in series [5] was above 50 µM throughout.

Consider `CN(C)CCN1C(=O)c2c3cc(Br)ccc3nc3cccc1c23` [Compound 7a, 9-bromo-2-(2-(dimethylamino)ethyl)pyrrolo[2,3,4-kl]acridin-1-(2H)-one], for which the concentration for half-maximal inhibition (IC50) in [1] is 1.87 µM; in series [4], 1.85 µM; in [7] it was 1.97 µM.

Consider `CN(C)CCCN1C(=O)c2c3cc(Br)ccc3nc3cccc1c23` [Compound 7b, 9-bromo-2-(3-(dimethylamino)propyl)pyrrolo[2,3,4-kl]acridin-1-(2H)-one], for which the results for the half-maximal inhibitory concentration (IC50) in [1], in [4] and in series [7] were 2.27 µM, 3.84 µM and 2.15 µM, respectively.

Take `CN(C)CCCN1C(=O)c2c3cc(I)ccc3nc3cccc1c23` [Compound 7d, 2-(3-(dimethylamino)propyl)-9-iodopyrrolo[2,3,4-kl]acridin-1-(2H)-one]: the half-inhibitory concentration (IC50) in [1] turned out to be 2.64 µM; in series [4] it was 3.78 µM; in [7], 2.8 µM.

`Cn1nnc2c(C(N)=O)ncn2c1=O` [TMZ, Temozolomide, reference compound]: the “animal weight compared with the vehicle” value in [6] (50 mg/kg) is “significant lower compared with the vehicle”.
